# Literature values in patent US10507205B2, “Methods of treating opiate dependency and preventing non-oral opiate abuse among opiate addicts” (PURDUE PHARMACEUTICAL PRODUCTS L.P., priority 2006, dated 2019).
# Details: pronounced first-pass metabolism, 'sometimes less than 5%'
compound,measurement,value
"C=CCN1CCC23c4c5ccc(O)c4OC2C(=O)CCC3(O)C1C5 (stereo not shown) [naloxone, Naloxone]",bioavailability of orally administered naloxone,less than 5%
